Experimental data from ChEMBL document CHEMBL4689842, “EUbOPEN Chemogenomics Library wave 1” (2021).

How the values were obtained:
[1] = system: Fibroblast; assay: Incucyte cell viability with human fibroblast; assay type: toxicity, cell-based; details: 10 µM, compound concentration 10 uM
[2] = system: HEK-293T; assay: Incucyte cell viability with HEK293T; assay type: toxicity, cell-based; details: human, 10 µM, compound concentration 10 uM
[3] = 0 h, replicate number 1, timepoint 0 hours
[4] = 6 h, replicate number 1, timepoint 6 hours
[5] = 12 h, replicate number 1, timepoint 12 hours
[6] = 18 h, replicate number 1, timepoint 18 hours
[7] = 24 h, replicate number 1, timepoint 24 hours
[8] = 0 h, replicate number 2, timepoint 0 hours
[9] = 6 h, replicate number 2, timepoint 6 hours
[10] = 12 h, replicate number 2, timepoint 12 hours
[11] = 24 h, replicate number 2, timepoint 24 hours
[12] = 18 h, replicate number 2, timepoint 18 hours
Note: filed as whole numbers so only -1 and 0 and 1 occur.

Row | Structure (SMILES) | Growth Rate [1, 3] | Growth Rate [1, 4] | Growth Rate [1, 5] | Growth Rate [1, 6] | Growth Rate [1, 7] | Growth Rate [2, 8] | Growth Rate [2, 4] | Growth Rate [2, 5] | Growth Rate [2, 6] | Growth Rate [2, 7] | Growth Rate [1, 8] | Growth Rate [2, 3] | Growth Rate [2, 9] | Growth Rate [1, 10] | Growth Rate [1, 11] | Growth Rate [2, 11] | Growth Rate [2, 10] | Growth Rate [2, 12] | Growth Rate [1, 12] | Growth Rate [1, 9]
1 | S=C(NCCCc1c[nH]cn1)NCCCN(Cc1ccc(Cl)c(Cl)c1)c1ccc(Br)cn1 | 0 | 0 | 0 | 0 | 0 | 0 | 0 | 0 | 0 | 0 | – | – | – | – | – | – | – | – | – | –
2 | Cc1cc(C)c(S(=O)(=O)N(Cc2ccc(-c3cccc(S(C)(=O)=O)c3)cc2)Cc2ccc(C(F)(F)F)o2)c(C)c1 | 1 | 1 | 0 | 0 | 0 | – | 0 | 0 | 0 | 0 | 0 | 0 | 1 | – | – | – | – | – | – | –
3 | Cl.Oc1ccc2c3c1O[C@H]1c4[nH]c5c(c4C[C@@]4(O)[C@@H](C2)N(CC2CC2)CC[C@]314)C[C@@]1(O)[C@H]2Cc3ccc(O)c4c3[C@@]1(CCN2CC1CC1)[C@H]5O4 | 0 | 0 | 0 | 0 | 0 | – | 1 | 1 | 1 | 1 | 1 | 0 | – | 1 | 1 | 0 | – | – | – | –
4 | COc1cc(N2CCN(C)CC2)ccc1Nc1ncc2c(n1)N(C)c1ccccc1C(=O)N2C | 0 | – | 0 | 1 | 1 | – | – | – | 1 | 0 | – | 1 | 1 | – | – | – | 0 | 0 | – | –
5 | CCOc1cc(C(=O)N2CCC(N3CCN(C)CC3)CC2)ccc1Nc1ncc2c(n1)N(C1CCCC1)c1ccccc1C(=O)N2C | – | 1 | 0 | 0 | 0 | 0 | 0 | 0 | 0 | 0 | 0 | – | – | – | 1 | – | – | – | 1 | –
6 | CN([C@@H](Cc1ccc(OS(=O)(=O)c2cccc3cnccc23)cc1)C(=O)N1CCN(c2ccccc2)CC1)S(=O)(=O)c1cccc2cnccc12 | 1 | – | 1 | 1 | 0 | 1 | 0 | 0 | 0 | 0 | – | – | – | 0 | 1 | – | – | – | – | 0
7 | O=C(Nc1ccc(Cl)cc1)Nc1cccc(-c2cccc(N3CCCC3)n2)c1 | 0 | 0 | 0 | 0 | 0 | 0 | 0 | 0 | 0 | 0 | – | 1 | – | – | – | – | – | – | – | –
8 | CCn1c(=O)c(-c2ccc(-c3cncs3)cc2Cl)cc2cnc(Nc3ccc(N4CCN(C)CC4)cc3)nc21 | 0 | – | – | 1 | 0 | – | 0 | – | – | 1 | – | 0 | – | – | – | 0 | 0 | 1 | – | –
9 | Cc1ccc(C(=O)Nc2cccc(C(F)(F)F)c2)cc1Nc1nc(-c2cccnc2)nc2c1cnn2C | – | 0 | 0 | 0 | 0 | – | 0 | 0 | 0 | 0 | – | 0 | – | – | – | – | – | – | – | –
10 | CCCS(=O)(=O)c1nc(NC2CC2)cc(-c2ccc3c(ccn3C3CC(C)(C)NC(C)(C)C3)c2)n1 | 0 | 0 | 0 | 0 | 0 | 0 | 0 | 0 | 0 | 0 | – | – | – | – | – | – | – | – | 1 | –
11 | COC(=N)c1nc2ccc3ncnc(Nc4ccc(OC)cc4F)c3c2s1 | 0 | – | 1 | 1 | 0 | 1 | 0 | 0 | 0 | 0 | – | 0 | – | – | – | – | – | – | – | –
12 | CNC(=O)c1ccc(Nc2nc(OC3CCCC3)c3c(-c4ccc5nc(C)oc5c4)c[nH]c3n2)c(OC)c1 | 0 | – | 0 | 0 | 0 | 1 | 0 | 0 | 0 | 0 | – | – | – | – | – | – | – | – | – | 0
13 | CCN1CCN(Cc2ccc(Nc3ncc(F)c(-c4cc(F)c5nc(C)n(C(C)C)c5c4)n3)nc2)CC1.CS(=O)(=O)O | 0 | – | – | 1 | 0 | – | 0 | 0 | 0 | 0 | – | 0 | – | – | 1 | – | – | – | – | –
14 | O=C(Nc1ccc(-c2ccnc(Nc3ccc(N4CCOCC4)cc3)n2)cc1)[C@@H]1CCCN1 | 0 | – | – | 1 | 0 | – | 0 | 0 | 0 | 0 | – | 1 | – | – | – | – | – | – | – | –
15 | CCN(CC)S(=O)(=O)Nc1cccc(-c2ccc3c(NC(=O)C4CC4)n[nH]c3c2)c1 | – | 0 | 0 | 0 | 0 | – | 0 | 0 | 0 | 0 | – | 0 | – | – | – | – | – | – | – | –
16 | CCc1cccc(CC)c1NC(=O)c1nn(C)c2c1CCc1cnc(Nc3ccc(N4CCN(C)CC4)cc3OC)nc1-2 | – | 0 | 0 | 0 | 0 | 0 | 0 | 0 | 0 | 0 | 1 | – | – | – | – | – | – | – | – | –
17 | Cl.O=c1c2cccn2c2ccccc2n1CCCN1CCC(c2ccc(Cl)cc2)CC1 | 1 | 0 | 0 | 0 | 0 | – | 0 | 0 | 0 | 0 | – | 0 | – | – | – | – | – | – | – | –
18 | Cc1ccc2nc(NCCN)c3ncc(C)n3c2c1.O=C(O)C(F)(F)F.O=C(O)C(F)(F)F | – | 0 | 0 | 0 | 0 | 1 | 0 | 0 | 0 | 0 | 0 | 0 | – | – | – | – | – | – | – | –
19 | NC(=O)c1cccc(-c2cc(Nc3ccc(OC(F)(F)F)cc3)ncn2)c1 | 1 | 0 | 0 | 0 | 0 | – | 0 | 0 | 0 | 0 | 0 | 0 | – | 1 | 1 | – | – | – | 1 | 1
20 | CN1C2CCC1CC(OC(c1ccc(F)cc1)c1ccc(F)cc1)C2.Cl (centres undefined) | – | 1 | 1 | 1 | 0 | 1 | 0 | 0 | 0 | 0 | – | – | – | 0 | – | – | – | – | 0 | 0
